The subject of the test is human prostate. The test is described as follows: Contractile responses of human prostate. To be noted: isolated human prostatic tissue strips; antagonism of (−)-noradrenaline contractions; single antagonist concentration incubated 2 hours. The format is cell-based. The method, then:
Contractile Responses of Human Prostate
Prostatic tissue was cut into longitudinal strips (approximately 3×2×10 mm) and suspended in organ baths under a resting tension of 1 g in Krebs Ringer bicarbonate of the following composition (mM): NaCl (119), KCl (4.7), CaCl2 (2.5), KH2PO4 (1.2), MgSO4 (1.2), NaHCO3 (25), glucose (11), and gassed with 95% O2/5% CO2. The solution also contained 10 […]. Tissues were exposed to a sensitising dose of (−)-noradrenaline ([…]) and washed over a 45 minute period. Isometric contractions were obtained in response to cumulative additions of (−)-noradrenaline to obtain control curves in all tissues. A further curve was then generated in the presence or absence of antagonist (incubated for 2 hours). Antagonist affinity estimates (pA2) were determined using a single concentration of competing antagonist, pA2=−log [A]/(DR−1) where the dose ratio (DR), relative to corresponding controls, was produced by a single concentration of antagonist [A], assuming competitive antagonism and Schild regression close to unity.

The values below come from US6521629B2, “Quinoline and quinazoline compounds useful in therapy” (Pfizer Inc., priority 1997, dated 2003).

Compound `COc1cc2nc(N3CCCN(C(=O)N4CCOCC4)CC3)cc(N)c2c(-c2ncco2)c1OC` [Example 28, 4-Amino-6,7-dimethoxy-2-[4-(4-morpholinecarbonyl)-1,4-diazepan-1-yl]-5-(oxazol-2-yl)quinoline] displayed a pA2 value of 9.2.
